Patent publication US8530404B2, “Compounds and methods for treatment of cancer” (FibroGen, Inc., priority 2005, dated 2013)
Read-outs that look alike come from different tables or passages of the source.

Tests used:
NDRG1 gene expression [1] = assay: NDRG1 gene expression in Hep3B cells (Affymetrix microarray); type: cell-based, human; details: 25 μM, vs DMSO control
Description: (§1) To identify compounds useful in the methods of the present invention, the following studies were performed. The effect of compounds of the present invention on expression of various genes associated with anti-tumor activity (e.g., genes having anti-proliferative activity, genes having pro-apoptotic activity, genes having anti-tumor activity, etc.). In these experiments, the effect of compounds on BNIP3, BNIP3L, NDRG1, CDKN1C, and REDD1/RTP801 gene expression in various types of cultured tumor cells line was examined, including Hep3B cells (human hepatocellular carcinoma), Kelly neuroblastoma cells, and MCF7 cells (human breast cancer)
(§2) The effects of various compounds of the present invention on the expression of genes associated with tumor growth and progression were examined in Hep3B cells as follows. Hep3B cells (ATCC) were cultured in DMEM containing 8% fetal bovine serum (FBS) and antibiotics. For each experiment, Hep3 cells were added to 6-well tissue culture dishes (approximately 500,000 cells per well). After 8 hours, the media was replaced with DMEM containing 0.5% FBS. Sixteen hours later, various compounds of the present invention were added to the cultured cells to a final concentration of 25 μM. The cells were then harvested and added to RNA extraction buffer (RNeasy, Qiagen). RNA was isolated from cell lysates using RNeasy Mini spin columns (Qiagen) according to the manufacturer's instructions. Changes in expression of various gene transcript levels associated with tumor growth and progression were determined by Affymetrix microarray. Labeled probes were prepared and hybridized to U133A Affyrnetrix microarrays.
(§3) Changes in gene expression levels in vitro following compound addition are presented as fold change relative to gene expression levels observed in control cells treated with DMSO only. Data represents the average of two independent studies.

BNIP3L gene expression [2] = assay: In vivo BNIP3L gene expression in Swiss Webster mice (quantitative PCR); details: Mus musculus, iv, 4 h, single 60 mg/kg i.v. dose, four hours after administration, normalized to 18S, read-out: fold change in BNIP3L mRNA level
Description: (§4) The effects of various compounds of the present invention on the expression of genes associated with tumor growth and progression (e.g., expression of genes associated with anti-proliferative effects) were examined in vivo as follows. In these studies, male Swiss Webster mice (25 g) were administered a single intravenous (i.v.) dose of various compounds (60 mg/kg) of the present invention via the tail vein. Four hours after administration of compound, the kidneys and liver were removed and preserved in RNAlater (Ambion). RNA isolation and cDNA synthesis was carried out as follows. Murine kidney tissue was added to TRIzol (Invitrogen) and homogenized using a 5-mm stainless steel bead for 4 minutes at 25 Hz in a Mixer Mill 300 (Qiagen). Homogenates were extracted with chloroform according to the manufacturer's instructions and aqueous supernatants were isolated. The aqueous supernatants were combined with equal volumes of 70% ethanol and then loaded onto RNeasy Mini spin columns (Qiagen). RNA was isolated according to the manufacturer's instructions.
(§5) Synthesis of cDNA from the isolated total RNA was carried out using Omniscript reverse transcriptase (Qiagen) and random primers according to the manufacturer's instructions. Measurement of gene expression levels in compound-treated animals and in vehicle-treated control animals was performed by quantitative PCR using TaqMan Universal PCR Master Mix (Applied Biosystems) and TaqMan Assay-on-Demand assays (Applied Biosystems) in a Prism 7000 system instrument (Applied Biosystems), according to manufacturer's instructions. The assays used were as follows: 18S ribosomal RNA, Hs99999901_s1; BNIP3, Mm00833810_g1; BNIP3L, Mm00786306_s1; NDRG1, Mm00440447_m1. Each PCR amplification reaction included a standard curve and a water blank. Data for gene expression levels for BNIP3, BNIP3L, and NDRG1 were normalized to that of 18S ribosomal RNA within each sample. Data is presented as fold change in specific mRNA levels relative to that of non-treated control animals.

[3] = test system: REDD1/RTP801 gene expression; assay: REDD1/RTP801 gene expression in Hep3B cells (Affymetrix microarray); type: cell-based, human; details: 25 μM, vs DMSO control
Description: as §1, §2, §3

BNIP3L gene expression [4] = assay: BNIP3L gene expression in Hep3B cells (Affymetrix microarray); type: cell-based, human; details: 25 μM, vs DMSO control
Description: as §1, §2, §3

BNIP3 gene expression [5] = assay: BNIP3 gene expression in Hep3B cells (Affymetrix microarray); type: cell-based, human; details: 25 μM, vs DMSO control
Description: as §1, §2, §3

BNIP3 gene expression [6] = assay: In vivo BNIP3 gene expression in Swiss Webster mice (quantitative PCR); details: Mus musculus, iv, 4 h, single 60 mg/kg i.v. dose, four hours after administration, normalized to 18S, read-out: fold change in BNIP3 mRNA level
Description: as §4, §5

BNIP3 gene expression [7] = assay: BNIP3 gene expression in MCF7 cells; type: cell-based; details: Homo sapiens; MCF7 cells; 20 μM; 20-24 hours; vs 0.5% DMSO control; read-out: fold-increase in BNIP3 mRNA expression
Description: as §1
(§6) The effects of various compounds of the present invention on the expression of genes associated with tumor growth and progression were examined in MCF7 breast cancer cells as follows. In some experiments, MCF7 (ATCC) cells were plated in 96-well tissue culture dishes (approximately 20,000 cells per well) and cultured in DMEM media supplemented with 10% serum. The following day, the cells were washed and the media was replaced with DMEM containing 0.5% FBS. Various compounds of the present invention were added to the cultured cells to a final concentration of 20 μM, and the cells cultured for an additional 20-24 hours. DMSO (0.5%) was added to control cell cultures. RNA was isolated as described above. Changes in gene expression levels are presented as fold change compared to that of control (0.5% DMSO-treated) cultures.
In other experiments, MCF7 cells were plated in 96-well tissue culture dishes as described above. After 24 hours, the cells were washed and the media was replaced with DMEM containing 0.5% FBS. Various compounds of the present invention were added to the cultured cells to a final concentration of 20 μM. DMSO (0.5%) was added to control cell cultures. After 24 hours, changes in gene expression of BNIP3 and 18S RNA were determined directly using one-step quantitative multiplex RT-PCR reactions according to the manufacturer's instructions (QuantiTect Multiplex RT-PCR Kit, Qiagen, catalog no. 204643). Changes in gene expression levels are presented as fold change compared to that of control (0.5% DMSO-treated) cultures.

CDKN1C gene expression [8] = assay: CDKN1C gene expression in MCF7 cells; type: cell-based; details: Homo sapiens; MCF7 cells; 20 μM; 20-24 hours; vs 0.5% DMSO control; read-out: fold-increase in CDKN1C mRNA expression
Description: as §1, §6

CDKN1C gene expression [9] = assay: CDKN1C gene expression in Kelly neuroblastoma cells; type: cell-based; details: Kelly cells; 20 μM; 20-24 hours; normalized to 18S RNA; vs DMSO control; read-out: fold-increase in CDKN1C mRNA expression
Description: as §1
(§7) The effects of various compounds of the present invention on the expression of genes associated with tumor growth and progression were examined in Kelly neuroblastoma cells as follows. Kelly neuroblastoma cells were grown in RPMI media. For each experiment, Kelly neuroblastoma cells were added to 96-well tissue culture plates (approximately 40,000 cells per well) such that the plated cells reached confluence the following day. On the following day, the cells were washed and the media replaced with RPMI containing 0.5% FBS. Various compounds of the present invention were added to the cultured cells to a final concentration of 20 μM, and the cells cultured for an additional 20-24 hours. DMSO (0.5%) was added to control cell cultures.
(§8) RNA was isolated from the Kelly neuroblastoma cells using a commercial kit and used for the preparation of cDNA. BNIP3, CDKN1C, and 18S RNA levels were measured using commercial kits (18S, Applied Biosystems cat#4319413E); BNIP3, Applied Biosystems cat#HS00969293 MH). RNA levels for BNIP3 and CDKN1C were normalized to that of 18S RNA and is presented as fold-change compared to that observed in DMSO control cultures. Kelly cell NDRG1 and BNIP3L mRNA levels were measured by Affymetrix microarray in a separate study. Cells were harvested after 6 hours incubation with 20 μM test compound or DMSO (0.5%) as control. RNA was isolated and labeled probes were prepared and hybridized to U133 Plus 2.0 Affymetrix microarrays. Changes in gene expression levels are presented as fold change compared to that of control (0.5% DMSO-treated) cultures.

BNIP3 gene expression [10] = assay: BNIP3 gene expression in Kelly neuroblastoma cells; type: cell-based; details: Kelly cells; 20 μM; 20-24 hours; normalized to 18S RNA; vs DMSO control; read-out: fold-increase in BNIP3 mRNA expression
Description: as §1, §7, §8

NDRG1 gene expression [11] = assay: In vivo NDRG1 gene expression in Swiss Webster mice (quantitative PCR); details: Mus musculus, iv, 4 h; kidney; single 60 mg/kg i.v. dose; four hours after administration; normalized to 18S; read-out: fold change in NDRG1 mRNA level
Description: as §4, §5

Row | Structure (SMILES) | fold-increase in NDRG1 mRNA expression (NDRG1 gene expression [1]) [fold] | fold induction at 60 mg/kg (BNIP3L gene expression [2]; liver) | fold-increase in REDD1/RTP801 mRNA expression [3] [fold] | fold-increase in BNIP3L mRNA expression (BNIP3L gene expression [4]) [fold] | fold-increase in BNIP3 mRNA expression (BNIP3 gene expression [5]) [fold] | fold induction at 60 mg/kg (BNIP3 gene expression [6]; liver) | fold induction at 20 µM (BNIP3 gene expression [7]) | fold induction at 20 µM (CDKN1C gene expression [8]) | fold induction at 20 µM (CDKN1C gene expression [9]) | fold induction at 20 µM (BNIP3 gene expression [10]) | fold induction at 60 mg/kg (NDRG1 gene expression [11]) | fold induction at 60 mg/kg (BNIP3L gene expression [2]; kidney) | fold induction at 60 mg/kg (BNIP3 gene expression [6]; kidney)
1 | O=C(O)c1c[nH]c2c(ccc3cccnc32)c1=O [Compound F, 4-Oxo-1,4-dihydro-[1,10]phenanthroline-3-carboxylic acid] | 5.4 | 1.3 | 6.3 | 3.2 | 3.5 | 1.1 | – | – | – | – | – | – | –
2 | O=C(O)CNC(=O)c1nc2cc(Cl)ccc2cc1O [Compound H, [(7-Chloro-3-hydroxy-quinoline-2-carbonyl)-amino]-acetic acid] | 2.4 | – | 2.4 | 1.5 | 2.0 | – | 3.2 | 0.7 | 11.6 | 5.9 | – | – | –
3 | O=C(O)CNC(=O)c1ncc2cc(Oc3ccccc3)ccc2c1O [Compound K, [(4-Hydroxy-7-phenoxy-isoquinoline-3-carbonyl)-amino]-acetic acid] | 3.3 | – | 4.8 | 2.2 | 3.0 | – | 7.7 | – | – | – | – | – | –
4 | O=C(O)CNC(=O)c1ncc2cc(Sc3ccccc3)ccc2c1O [Compound N, [(4-hydroxy-7-phenylsulfanyl-isoquinoline-3-carbonyl)-amino]-acetic acid] | 3.7 | – | 5.7 | 2.8 | 3.6 | – | 4.9 | 0.4 | 183 | 27.1 | 1.2 | 3.4 | 3.1
